# Experimental data as given in patent US8968997B2, “Benzoxazole-based fluorescent metal ion indicators” (Life Technologies Corporation, priority 2008, dated 2015).
# Values joined by “and” are separate entries in the source; they are usually repeats but may differ in a detail not shown here. Equal entries are not always repeated.
# How the values were obtained:
# [1] = Spectrofluorimetry studies: excitation and emission spectra and ratiometric response to metal ion binding; type: physicochemical; settings: for λabs (UV), (nm): indicator 1-2 μM in 30 mM MOPS, 100 mM KCl buffer; for λemiss (nm) / λexcit (nm): position of maxima for two ratiometric peaks, 30 mM MOPS, 100 mM KCl, 0 to 200 nM free calcium ion
# Description: (§1) The excitation and emission spectra of solutions of various ion indicators (concentration 1-2 μM) were recorded in 30 mM MOPS and 100 mM KCl buffers containing 0 to 200 nM free calcium ion. The binding constant values were calculated based on 8-10 data points taken in buffers covering the concentration range appropriate for the Kd value. Spectral curves for derivatives of Compound 7 (with different R substitutents) were recorded using a standard spectrofluorimeter.
# FIGS. 1-3 show excitation and emission spectra for several of the tested compounds. […]
# [2] = Spectrofluorimetry studies: calcium binding constant (Kd) of ion indicators; settings: 30 mM MOPS, 100 mM KCl buffers; calculated from 8-10 data points; read-out: Kd(Ca^2+)
# Description: as §1
# [3] = system: Jurkat T-cell leukemia cultured cells; experiment: Flow cytometry studies: intracellular calcium response of dye-loaded cells after stimulant; type: cell-based; settings: Jurkat cells loaded with 4 μM cell-permeant compound, 355 nm excitation
# Description: Jurkat T-cell leukemia cultured cells were washed once with Hanks Buffered Salt Solution (HBSS) containing calcium and resuspended in HBSS at a concentration of 2×10^6/ml. A one (1) mL cell suspension was added to a 12×75 mm test tube. A cell-permeant compound (7e or 7f) was added to the cell suspension at a final concentration of 4 μM. The cell/dye mixture was mixed and placed at 37° C. protected from light for 30 minutes. The sample then was washed once with HBSS pre-warmed to 37° C. and the cell pellet was resuspended in one mL warmed HBSS. The sample rested for 15 minutes at 37° C. protected from light. […] Analysis of the data was performed using a dual parameter plot of time versus fluorescence ratio of the emissions as measured by 495/20:424/44 ratio. […] A plot of time versus fluorescence ratio for cells that have been loaded with the tested compound was collected upon addition of ionomycin or CD3 stimulant after baseline measurement. […] For Compound 7e, the ratio of the mean fluorescence as measured yielded an increase of 3.4× with ionomycin stimulation (A), an expected response which was maintained over time. The ratio of the mean fluorescence as measured gave an increase of 2.8× with CD3 stimulation (B), an expected response which decreased slightly over time. […]
Compound,"λabs (UV), (nm) [1]",λemiss (nm) [1],λexcit (nm) [1],Kd [2] [nM],increase of ratio of mean fluorescence (495/20:424/44 emission ratio) after stimulant vs baseline ([3]; 1 μM ionomycin stimulation) [×],increase of ratio of mean fluorescence (495/20:424/44 emission ratio) after stimulant vs baseline ([3]; CD3 stimulation) [×]
Cc1ccc(N(CC(=O)O)CC(=O)O)c(OCCOc2cc3nc(-c4ccc5nonc5c4)oc3cc2N(CC(=O)O)CC(=O)O)c1 [Compound 7l],330 nm and 440 (non- nm,490 nm,324-364 nm,157,–,–
Cc1ccc(N(CC(=O)O)CC(=O)O)c(OCCOc2cc3nc(-c4nc5ccccc5s4)oc3cc2N(CC(=O)O)CC(=O)O)c1 [Compound 7i],364 nm,569 nm,361-422 nm,309,–,–
Cc1ccc(N(CC(=O)O)CC(=O)O)c(OCCOc2cc3nc(-c4cc[n+]([O-])cc4)oc3cc2N(CC(=O)O)CC(=O)O)c1 [Compound 7k],357 nm,612 nm,356-425 nm,304,–,–
Cc1ccc(N(CC(=O)O)CC(=O)O)c(OCCOc2cc3nc(/C=C/c4ccc(N(C)C)c5ccccc45)oc3cc2N(CC(=O)O)CC(=O)O)c1 [Compound 7p],392 nm,586 nm,392 nm,290,–,–

# Now from value to compound, other results behind:
"λabs (UV), (nm) [1]",λemiss (nm) [1],λexcit (nm) [1],Kd [2] [nM],Compound,increase of ratio of mean fluorescence (495/20:424/44 emission ratio) after stimulant vs baseline ([3]; 1 μM ionomycin stimulation) [×],increase of ratio of mean fluorescence (495/20:424/44 emission ratio) after stimulant vs baseline ([3]; CD3 stimulation) [×]
366 nm,567 nm,349-392 nm,146,Cc1ccc(N(CC(=O)O)CC(=O)O)c(OCCOc2cc3nc(-c4cccc(=O)[nH]4)oc3cc2N(CC(=O)O)CC(=O)O)c1 [Compound 7j],–,–
472 nm,520 nm,472 nm,156,Cc1ccc(N(CC(=O)O)CC(=O)O)c(OCCOc2cc3nc(-c4cc5cc6c7c(c5oc4=O)CCCN7CCC6)oc3cc2N(CC(=O)O)CC(=O)O)c1 [Compound 7t],–,–
373 nm,496 nm,373 nm,129,Cc1ccc(N(CC(=O)O)CC(=O)O)c(OCCOc2cc3nc(-c4ccc5cc(N(C)C)ccc5c4)oc3cc2N(CC(=O)O)CC(=O)O)c1 [Compound 7r],–,–
375 nm,435-510 nm,375 nm,145,Cc1ccc(N(CC(=O)O)CC(=O)O)c(OCCOc2cc3nc(-c4cc5c6c(c4)CCCN6CCC5)oc3cc2N(CC(=O)O)CC(=O)O)c1 [Compound 7h],–,–
363 nm,417-496 nm,363 nm,85,Cc1ccc(N(CC(=O)O)CC(=O)O)c(OCCOc2cc3nc(-c4ccc(N(C)C)cc4O)oc3cc2N(CC(=O)O)CC(=O)O)c1 [Compound 7g],–,–
363 nm,417-475 nm,363 nm,103,COc1cc(N(C)C)ccc1-c1nc2cc(OCCOc3cc(C)ccc3N(CC(=O)O)CC(=O)O)c(N(CC(=O)O)CC(=O)O)cc2o1 [Compound 7f],3.2,2.8
413 nm,548 nm,413 nm,80,Cc1ccc(N(CC(=O)O)CC(=O)O)c(OCCOc2cc3nc(/C=C/c4cc5c6c(c4)CCCN6CCC5)oc3cc2N(CC(=O)O)CC(=O)O)c1 [Compound 7q],–,–
